Structures can show the parent of a compound that is named as a salt.
melting point	SMILES
199 to 200 °C (dec.)	Cc1ccc(N)c(C#Cc2cccc(F)c2)n1.Cl [Example 3, (2-(3-Fluoro-phenylethynyl)-6-methyl-pyridin-3-yl)amine hydrochloride]
132.4 to 134 °C	Cc1ccc(N)c(C#Cc2cccc(C#N)c2)n1.Cl
195 °C (dec.)	Cc1ccc(N)c(C#Cc2cccc(Cl)c2)n1.Cl

Further lines, the compound ahead of its results:

SMILES	melting point
Cc1ccc(N)c(C#Cc2cncc(Cl)c2)n1.Cl [Example 10, (2-(5-Chloro-pyridin-3-ylethynyl)-6-methyl-pyridin-3-yl)amine hydrochloride]	193 °C (dec.)
Cc1cc(C)c(N)c(C#Cc2cccc(Cl)c2)n1 (as salt: hydrochloride) [Example 13, (2-(3-Chloro-phenylethynyl)-4.6-dimethyl-pyridin-3-yl)amine hydrochloride]	204 °C
COc1cccc(C#Cc2nc(C)ccc2N)c1 [Example 4, (2-(3-Methoxy-phenylethynyl)-6-methyl-pyridin-3-yl)amine]	165 to 166 °C
Cc1ccc(N)c(C#Cc2ccc(F)cc2)n1.Cl	122 °C (dec.)
Cc1ccc(N)c(C#Cc2cc(F)cc(F)c2)n1.Cl [Example 7, (2-(3,5-Difluoro-phenylethynyl)-6-methyl-pyridin-3-yl)amine hydrochloride]	212 °C (dec.)
